# Positions of bridges follow the written chain, without caps; N, C: chain ends. Residues, ends and D or L forms follow the SMILES beside them. Chains are numbered I, II in the order given. No end group written: not given here.
# Molecular target: T1, VEGF165/NRP-1 (Rattus norvegicus, UniProt Q9QWJ9)
# T1 construct: purchased R&D Systems
# T1 sequence (Q9QWJ9 22-854 limits assumed): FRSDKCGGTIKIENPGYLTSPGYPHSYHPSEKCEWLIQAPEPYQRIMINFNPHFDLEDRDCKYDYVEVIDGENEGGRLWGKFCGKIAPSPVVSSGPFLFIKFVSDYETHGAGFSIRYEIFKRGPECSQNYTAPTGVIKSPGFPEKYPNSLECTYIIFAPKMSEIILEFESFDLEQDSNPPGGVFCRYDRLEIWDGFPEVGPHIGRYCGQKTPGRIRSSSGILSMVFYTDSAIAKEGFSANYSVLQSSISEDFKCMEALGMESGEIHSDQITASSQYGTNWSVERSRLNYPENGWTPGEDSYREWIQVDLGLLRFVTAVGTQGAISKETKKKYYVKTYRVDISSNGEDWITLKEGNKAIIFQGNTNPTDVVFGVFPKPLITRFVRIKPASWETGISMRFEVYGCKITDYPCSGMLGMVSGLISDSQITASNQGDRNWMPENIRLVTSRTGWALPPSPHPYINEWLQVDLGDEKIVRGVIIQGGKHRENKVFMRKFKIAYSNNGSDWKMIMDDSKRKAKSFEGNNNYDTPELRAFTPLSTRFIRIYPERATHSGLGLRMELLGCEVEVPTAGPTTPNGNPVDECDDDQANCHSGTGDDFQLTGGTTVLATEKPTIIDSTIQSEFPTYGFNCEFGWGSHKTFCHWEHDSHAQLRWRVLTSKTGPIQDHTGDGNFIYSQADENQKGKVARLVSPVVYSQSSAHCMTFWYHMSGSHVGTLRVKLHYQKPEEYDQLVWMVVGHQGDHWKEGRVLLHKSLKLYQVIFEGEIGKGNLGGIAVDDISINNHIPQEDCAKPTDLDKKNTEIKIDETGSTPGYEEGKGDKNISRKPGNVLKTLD
# Assay: biochemical
# Format: binding
# Settings: for IC50: VEGF165/NRP-1 binding inhibition
# Procedure: Selected compounds were tested in vitro by measuring the inhibition binding of VEGF165 to NRP-1. This assay allows the determination of percentage inhibition of the tested compound at a predetermined concentration. Determination of the Inhibitory Activity of the Tested Compounds. The evaluation of the inhibitory effect of peptidomimetics was performed using an enzymatic method denoting the spectrophotometric displacement of the VEGF165 ligand from the specific receptor by the evaluated compound. The studies were performed using polystyrene 96-well plates (Maxisorb, Nunc.). The Procedure for Determining the Inhibition of VEGF165/NRP-1. To evaluate the biological inhibitory activity of selected molecules in each well of flat bottom polystyrene plate of 96-wells (Maxisorb, Nunc,) a 100 μl of a solution containing 2 μg/ml of anti-Fc IgG (Sigma-Aldrich) dissolved in a phosphate buffer PBS (PBS, Sigma) was placed. The plate was allowed to stand overnight at 4° C. The next day, wells were washed three times with 100 μl PBS, and then saturated with 2% bovine serum albumin (BSA, Sigma) in PBS in order to eliminate non-specific interactions. After 2 hours of incubation at 37° C. the following solutions were added portionwise: 50 μl of purified recombinant rat NRP1-Fc (R&D Systems, Abingdon, UK) in a solution of 20 ng/well protein dissolved in PBS-BSA 0.1% tween-80 0.005% (PBT), 50 μl of compound solution in PBT in an appropriate concentration […] The total volume of added solution was 150 μl. After an overnight incubation at 4° C., the wells were washed with PBT and treated with streptavidin-HRP polymer (horseradish peroxidase, Sigma). The plate was incubated for 1 hour at room temperature. […] After 2 hours, the absorbance was measured at wavelength of 415 nm with respect to 470 nm. […] In the control wells the tested compound was absent, but the respective concentration of DMSO was maintained. The heptapeptide A7R (ATWLPPR (SEQ ID NO:1)) was used as a positive control on every 96-well plate.
decrease in inhibition with decreasing concentration (reduction of concentrations of 10-0.3 μM) [fold],IC50 [nM],Compound
5,,"ATWLPPR [A7R, ATWLPPR, reference compound]"
,180,N=C(N)NCCCC(NC(=O)C1CCC(=O)NCCCCC(N)C(=O)N2CCCC2C(=O)N1)C(=O)O (stereo not drawn) [H-c[Lys-Pro-Glu]-Arg-OH] (H-KPER-OH; lactam 1-3; configuration not given here)
,460,"N=C(N)NCCCC(NC(=O)C1CCC(=O)NC(CCCCN)C(=O)N2CCCC2C(=O)NC(C(=O)NC(CCCNC(=N)N)C(=O)O)CCC(=O)NC(CCCCN)C(=O)N2CCCC2C(=O)N1)C(=O)O (stereo not drawn) [(c[Lys-Pro-Glu]-Arg-OH)2] (I: KPER-OH / II: KPER-OH; amide I:3-II:N, I:N-II:3; configuration not given here)"

# Source: US10800814B2, “Cyclic peptidomimetics, compositions containing them and their use in the treatment of diseases associated with angiogenesis” (priority 2015, dated 2020)
